Source: patent publication US8067391B2, “ODCase inhibitors for the treatment of malaria” (University Health Network, priority 2005, dated 2011)
Read-outs that look alike come from different tables or passages of the source.

Tests used:
Plasmodium falciparum = assay: anti-malarial activity against Plasmodium falciparum; format: cell-based; conditions: read-out: IC50 anti-malarial activity
Method: (§1) Assays comparing the antiplasmodial activities of the compounds of the invention were performed using the SYBR-Green method.^xlviii Briefly, the compounds were dissolved in DMSO to achieve a concentration of 10 mg/mL. Fifty microliters of RPMI-A were added to each well in a 96-well plate before 40 μL of RPMI-A and 10 μL of compound solution were added to the first well, the contents of the well were mixed, 50 μL were removed and added to the next well in the series and the process was repeated until the next-to-last well was reached. This produced a plate with a series of two-fold dilutions across it, except for the last well in the series, which contained RPMI-A alone. Fifty microliters of parasite culture (2% hematocrit, 2% parasitemia) were added to each well and the plates were then incubated at 37° C. in 95% N2, 3% CO2, and 2% O2 for 72 hrs.

Plasmodium vivax = assay: anti-malarial activity against Plasmodium vivax; format: cell-based; conditions: range stated for the group of compounds
P. falciparum ItG = assay: antiplasmodial activity, SYBR-Green method, P. falciparum ItG isolate; format: cell-based; conditions: Plasmodium falciparum, in vitro, FIG. 4, read-out: IC50 anti-plasmodial activity
Method: as §1
(§2) CHO cells (ATCC, Manassas, Va.) were grown in RPMI-1640 supplemented with 10% fetal calf serum (Sigma, St. Louis, Mo.), 25 mM HEPES and gentimicin (RPMI-10). Cells were seeded in 96 well plates and grown to 50% confluency in 100 μL of RPMI-10 per well prior to the addition of either DMSO alone, or a test compound dissolved in DMSO to a concentration of 10 mg/mL. […]

P. falciparum 3D7 = assay: antiplasmodial activity, SYBR-Green method, P. falciparum 3D7 isolate; format: cell-based; conditions: Plasmodium falciparum, in vitro, FIG. 4, read-out: IC50 anti-plasmodial activity
Method: as §1, §2

[1] = CHO cell toxicity assay (MTT); format: cell-based; conditions: Chinese hamster, CHO cells; CHO cell line
Method: CHO cells (ATCC, Manassas, Va.) were grown in RPMI-1640 supplemented with 10% fetal calf serum (Sigma, St. Louis, Mo.), 25 mM HEPES and gentimicin (RPMI-10). Cells were seeded in 96 well plates and grown to 50% confluency in 100 μL of RPMI-10 per well prior to the addition of either DMSO alone, or a test compound dissolved in DMSO to a concentration of 10 mg/mL. Compound gradients were prepared by adding 90 μL of RPMI-10 mixed with 10 μL of compound solution to the first well in the series, mixing, transferring 100 μL to next well and repeating until the next-to-last well was reached. After 48 hrs, the viability of the cells was determined by discarding the media in the wells and adding 100 μL of 10 mg/mL of 3-[4,5-dimethylthiazol-2-yl]-2,5-diphenyltetrazolium bromide (MTT, Sigma, St. Louis, Mo.) in RPMI-10, incubating the plates for an additional hour, and then removing the media and adding 100 μL of DMSO and reading the absorbance at 650 nm.^xlix The IC50 values of individual compounds were determined applying a non-linear regression analysis of the dose-response curve using the computer program SigmaPlot (Jandel Scientific).

[2] = toxicity to Vero cell line; format: cell-based; conditions: African green monkey, Vero cells
[3] = toxicity to human fibroblast (HFF) cell line; format: cell-based; conditions: human fibroblast (HFF) cells
[4] = system: human primary blood cells (PBLs); assay: human primary blood cell assay (H-3 incorporation, Con A stimulated); format: cell-based
Method: The following procedure was used to conduct human primary blood cell assays. Added 3 ml of PBS (OCI media facility) to 3 ml of serum depleted blood from normal, adult, human controls. Pipetted 6 ml Ficoll-Paque Plus (Amersham 17-1440-03) into a 15 ml centrifuge tube. Overlaid with PBS diluted blood. Centrifuged at 2500 rpm for 10 minutes at room temperature, no brake.
Removed and discarded upper (PBS) phase. Transferred cells at the PBS/Ficoll interface to a clean 15 ml centrifuge tube. Added 10 mL PBS. Then, centrifuged at 1250 rpm for 10 minutes at room temperature.
Discarded the supernatant and resuspended the cell pellet in Iscove's Modified Dulbecco's Medium (Gibco 12440 prepared by OCI Media facility) supplemented with 5.5×10^-5M 2ME (Fisher 03446-100) and 5% FBS (Hyclone SH-30397-03 Lot # KPG21604). Plated cells at 50,000 cells per well in 96 well flat bottom plates (Costar 3595). Added Concanavalin A (Pharmacia 17-0450-01) to a final concentration of 1.5 micro gm/ml. All conditions were set in triplicate.
Included untreated (Con A alone) controls. Cultured cells for 48 hours or 72 hours at 37° C. with 5% CO2 and 90% relative humidity. Added 0.5 uCi H-3 (Perkin Elmer NET027A) per well in 10 microL for the last 8 hours of the culture period. […]
Dried plates for 1 hour at 37° C. […] Data was collected by reading the radioactivity counts.

P. burghei [5] = assay: mouse efficacy study against plasmodia; format: in vivo, mice
Text: P. chabaudi chabaudi (Pcc) AS infection: They are two different species of mouse malaria that are used commonly in mice efficacy studies: P. chabaudi chabaudi AS and P. burghei. Pcc strain induces larger load of parasites and even some mouse strains die. If P. burghei strain is given to the mouse, they develop fewer parasites but become very sick. Pcc strain provides an opportunity in mice to observe if parasite numbers are reduced in the context of a reasonably healthy animal. Thus, Pcc strain was used in the efficacy model.
Blood-stage PCCAS was maintained in as described (Podoba J E and Stevenson, 1991)[2]. Infections in experimental animals were initiated by intraperitoneal injection of 1×10^6 P. chabaudi chabaudi AS-infected erythrocytes (PCCAS). Course of infection was monitored daily for 18 days by determining parasitemia on thin-blood smears stained with Diff Quik (American Scientific Products, Mississauga, ON). Compounds to be assayed were made up in RPMI 1640 at the concentration required to deliver the target dose in a total volume of 0.5 mL and were then filter sterilized. Compounds were stored at 4° C. prior to use. After infection the presence of parasites in the peripheral circulation was monitored daily until parasites were first observed. The mice were then injected daily for three consecutive days with either RPMI 1640 alone or compound dissolved in RPMI. The health of the animals was assessed daily and the parasitemia determined by examining blood films.
(§3) Efficacy studies in mice were performed using Ii to test the in vivo potential of this compound. Mice were infected with P. burghei, a mouse strain similar to the human malaria parasite P. falciparum. P. burghei strain is approximately 20 times less sensitive to Ii, so the dose in mice had to be adjusted accordingly. Parasitemia was monitored in mice after the drug was given at two different doses: 0.6 mg/mouse (n=3) and 6 mg/mouse (n=3). There was a control group of mice without any treatment with Ii.

ODCase = ODCase inhibition (isothermal titration calorimetry enzymology); format: biochemical
Method: (a) Enzymology. ODCase from M. thermoautotrophicum (Mt) and compound Id were incubated at room temperature in the reaction buffer (50 mM Tris, 20 mM DTT, 40 mM NaCl, pH 7.5). The concentrations of the Id were 1×, 2.5×, 3.5× and 5× of the enzyme concentration, corresponding to 50, 125, 175 and 250 μM, respectively. The remaining enzyme activity in the enzyme-inhibitor reaction mixture was measured after 30 min, 2, 4, 8, 12, 24, 48 and 96 hours after the onset of incubation. Aliquots (1 μL) were removed from the reaction mixture and diluted to 2.5 mL with the assay buffer (50 mM Tris, 1 mM DTT, pH 7.5). […]
The inhibition of ODCase from P. falciparum (Pf) was assayed in a similar manner. […] The remaining activity of ODCase was measured at 37° C. for up to 48 hrs. […]
The Pf ODCase concentration in each of the samples (15, 30, and 45 min incubation times) was 60 nM. […] The remaining enzyme activities in these samples were measured by injecting 3 μL of 2.85 mM OMP. The enzyme activity at t=0 was measured by injecting OMP and 6-iodo-UMP simultaneously into the 60 nM enzyme solution in the ITC sample chamber. […] The control sample with 60 nM enzyme was incubated for 15-45 minutes at 37° C., and the enzyme activity was measured after the addition of 3 μL of 2.85 mM OMP. […]
Half-time of inactivation t1/2 was calculated from: t1/2=0.693/kinact (3)

P. burghei [6] = assay: sensitivity of P. burghei strain compared with P. falciparum; conditions: P. burghei strain vs P. falciparum
Method: as §3

[7] = range stated for the group of compounds

SMILES	IC50 (Plasmodium falciparum; [7]) [µM]	IC50 (Plasmodium vivax) [µM]	other results
Nc1cc(=O)[nH]c(=O)n1[C@@H]1O[C@H](CO)[C@@H](O)[C@H]1O [Compound Ic, 6-Amino uridine]	20 to 2000	20 to 2000	–
COC(=O)c1cc(=O)[nH]c(=O)n1[C@@H]1O[C@H](CO)[C@@H](O)[C@H]1O [Compound It, 6-Methoxycarbonyl uridine]	20 to 2000	20 to 2000	–
N#Cc1cc(=O)[nH]c(=O)n1[C@@H]1O[C@H](CO)[C@@H](O)[C@H]1O [Ia, 6-Cyanouridine]	20 to 2000	20 to 2000	–
N#Cc1cc(=O)[nH]c(=O)n1[C@@H]1O[C@H](COP(=O)(O)O)[C@@H](O)[C@H]1O [Ib, 6-Cyanouridine-5′-monophosphate]	–	20 to 2000	IC50 (Plasmodium falciparum): 20 to 2000 µM
[N-]=[N+]=Nc1cc(=O)[nH]c(=O)n1[C@@H]1O[C@H](CO)[C@@H](O)[C@H]1O [Id, 6-Azido uridine]	20 to 2000	20 to 2000	–
O=c1cc(I)n([C@@H]2O[C@H](CO)[C@@H](O)[C@H]2O)c(=O)[nH]1 [Ii, 6-Iodo-uridine]	–	–	IC50 (P. falciparum ItG): 4.4 ± 1.3 µM; IC50 (P. falciparum 3D7): 6.2 ± 0.7 µM; IC50 at 48 h [1]: 366 ± 45 µM; CC50 [2]: > 300 µM; IC50 [3]: > 300 µM; toxicity not observed up to [4]: > 200 mM; parasitemia in mice (P. burghei [5]; mice infected with P. burghei, 0.6 and 6 mg/mouse, vs untreated controls, dose-dependent, FIG. 5): decreased parasitemia; survival rate (P. burghei [5]; mice infected with P. burghei, treated vs controls, FIG. 6): longer survival time; survival, multiple dosing, higher doses (P. burghei [5]; mouse efficacy study with multiple dosing, vs no drug, FIG. 7): increased survival; type of ODCase inhibition (ODCase): covalent inhibitor; times less sensitive than P. falciparum (P. burghei [6]): approximately 20 times

Now from value to compound, other results behind:

IC50 (Plasmodium falciparum; [7]) [µM]	IC50 (Plasmodium vivax) [µM]	SMILES	other results
20 to 2000	20 to 2000	Nc1cc(=O)[nH]c(=O)n1[C@@H]1O[C@H](COP(=O)(O)O)[C@@H](O)[C@H]1O [Ie, 6-Amino uridine-5′-O-monophosphate]	–
20 to 2000	20 to 2000	[N-]=[N+]=Nc1cc(=O)[nH]c(=O)n1[C@@H]1O[C@H](COP(=O)(O)O)[C@@H](O)[C@H]1O [If, 6-Azido uridine-5′-O-monophosphate]	–
20 to 2000	20 to 2000	O=c1cc(I)n([C@@H]2O[C@H](COP(=O)(O)O)[C@@H](O)[C@H]2O)c(=O)[nH]1 [Ij, 6-Iodo uridine-5′-O-monophosphate]	–
20 to 2000	20 to 2000	Nc1c(F)c(=O)[nH]c(=O)n1[C@@H]1O[C@H](CO)[C@@H](O)[C@H]1O [In, 5-Fluoro-6-amino uridine]	–
20 to 2000	20 to 2000	[N-]=[N+]=Nc1c(F)c(=O)[nH]c(=O)n1[C@@H]1O[C@H](CO)[C@@H](O)[C@H]1O [Io, 5-fluoro-6-azido uridine]	–
20 to 2000	20 to 2000	O=c1[nH]c(=O)n([C@@H]2O[C@H](CO)[C@@H](O)[C@H]2O)c(I)c1F [Ip, 5-fluoro-6-iodo uridine]	–
